From ChEMBL document CHEMBL5543175, “Discovery of Selective Proteolysis-Targeting Chimera Degraders Targeting PTP1B as Long-Term Hypoglycemic Agents” (J Med Chem, 2024) come the findings set out here.

What all share (assay type): cell-based
Test [1] concerns the target T1, Protein cereblon/Tyrosine-protein phosphatase non-receptor type 1 (Homo sapiens, UniProt P18031+Q96SW2). The experiment in a line: PROTAC activity at PTP1B/CRBN in insulin treated human HepG2 cells assessed as protein degradation at 5 nM incubated for 48 hrs by Western blot analysis relative to control. Background: A western blot detects proteins with antibodies after separation by electrophoresis.
Target sequence in this assay (P18031 whole entry, looked up): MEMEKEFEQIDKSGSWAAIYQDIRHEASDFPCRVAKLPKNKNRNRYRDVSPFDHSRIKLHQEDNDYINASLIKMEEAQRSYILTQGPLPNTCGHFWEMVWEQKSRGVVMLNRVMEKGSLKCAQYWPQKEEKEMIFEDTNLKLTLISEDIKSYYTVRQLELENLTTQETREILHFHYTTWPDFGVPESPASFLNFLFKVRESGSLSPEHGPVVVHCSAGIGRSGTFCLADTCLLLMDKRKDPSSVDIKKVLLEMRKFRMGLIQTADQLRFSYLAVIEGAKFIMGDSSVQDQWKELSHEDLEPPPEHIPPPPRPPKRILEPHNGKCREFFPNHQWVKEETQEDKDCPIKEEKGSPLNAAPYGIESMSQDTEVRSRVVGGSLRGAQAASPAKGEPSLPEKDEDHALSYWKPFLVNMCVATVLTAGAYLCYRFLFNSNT
Target sequence in this assay (Q96SW2 whole entry, looked up): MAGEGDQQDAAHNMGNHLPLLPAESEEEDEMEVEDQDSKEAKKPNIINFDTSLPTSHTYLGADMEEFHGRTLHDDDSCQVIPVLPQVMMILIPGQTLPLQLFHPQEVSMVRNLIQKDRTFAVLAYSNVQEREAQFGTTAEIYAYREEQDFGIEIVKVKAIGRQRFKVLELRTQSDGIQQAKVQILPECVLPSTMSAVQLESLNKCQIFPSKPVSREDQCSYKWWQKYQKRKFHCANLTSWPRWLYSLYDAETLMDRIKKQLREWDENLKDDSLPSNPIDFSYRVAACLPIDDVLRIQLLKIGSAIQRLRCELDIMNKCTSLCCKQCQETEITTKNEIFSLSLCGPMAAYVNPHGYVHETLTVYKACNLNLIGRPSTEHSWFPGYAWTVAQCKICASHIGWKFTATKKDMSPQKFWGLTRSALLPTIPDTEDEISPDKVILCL

Test [2] concerns the target T1, Protein cereblon/Tyrosine-protein phosphatase non-receptor type 1. The experiment in a line: PROTAC activity at PTP1B/CRBN in insulin treated human HepG2 cells assessed as protein degradation at 50 nM incubated for 48 hrs by Western blot analysis relative to control.
Target sequence in this assay (P18031 whole entry, looked up): as the sequence (P18031 whole entry, looked up) above
Target sequence in this assay (Q96SW2 whole entry, looked up): as the sequence (Q96SW2 whole entry, looked up) above
The target is the same in test [3]. Kind of test: PROTAC activity at PTP1B/CRBN in insulin treated human HepG2 cells assessed as protein degradation at 500 nM incubated for 48 hrs by Western blot analysis relative to control.
Target sequence in this assay (P18031 whole entry, looked up): as the sequence (P18031 whole entry, looked up) above
Target sequence in this assay (Q96SW2 whole entry, looked up): as the sequence (Q96SW2 whole entry, looked up) above
The target is the same in test [4]. Kind of test: PROTAC activity at PTP1B/CRBN in insulin treated human HepG2 cells assessed as protein degradation at 5000 nM incubated for 48 hrs by Western blot analysis relative to control.
Target sequence in this assay (P18031 whole entry, looked up): as the sequence (P18031 whole entry, looked up) above
Target sequence in this assay (Q96SW2 whole entry, looked up): as the sequence (Q96SW2 whole entry, looked up) above
Test [5] has the same target. The experiment in a line: PROTAC activity at PTP1B/CRBN in insulin treated human HepG2 cells assessed as protein degradation incubated for 48 hrs by Western blot analysis.
For test [6] the target is unchanged. The experiment in a line: PROTAC activity at PTP1B/CRBN in insulin treated human HepG2 cells assessed as protein degradation incubated for 72 hrs by Western blot analysis.
For test [7] the target is unchanged. Kind of test: PROTAC activity at PTP1B/CRBN in insulin treated human HepG2 cells assessed as protein degradation at 1 nM incubated for 48 hrs by Western blot analysis relative to control.
Target sequence in this assay (P18031 whole entry, looked up): as the sequence (P18031 whole entry, looked up) above
Target sequence in this assay (Q96SW2 whole entry, looked up): as the sequence (Q96SW2 whole entry, looked up) above
For test [8] the target is unchanged. The experiment in a line: PROTAC activity at PTP1B/CRBN in insulin treated human HepG2 cells assessed as protein degradation at 1 nM incubated for 72 hrs by Western blot analysis relative to control.
Target sequence in this assay (P18031 whole entry, looked up): as the sequence (P18031 whole entry, looked up) above
Target sequence in this assay (Q96SW2 whole entry, looked up): as the sequence (Q96SW2 whole entry, looked up) above
Test [9] shares this target. The experiment in a line: PROTAC activity at PTP1B/CRBN in insulin treated human HepG2 cells assessed as protein degradation at 5 nM incubated for 72 hrs by Western blot analysis relative to control.
Test [10] shares this target. The experiment in a line: PROTAC activity at PTP1B/CRBN in insulin treated human HepG2 cells assessed as protein degradation at 25 nM incubated for 48 hrs by Western blot analysis relative to control.
For test [11] the target is unchanged. Kind of test: PROTAC activity at PTP1B/CRBN in insulin treated human HepG2 cells assessed as protein degradation at 25 nM incubated for 72 hrs by Western blot analysis relative to control.
Test [12] has the same target. The experiment in a line: PROTAC activity at PTP1B/CRBN in insulin treated human HepG2 cells assessed as protein degradation at 125 nM incubated for 48 hrs by Western blot analysis relative to control.
The target is the same in test [13]. Kind of test: PROTAC activity at PTP1B/CRBN in insulin treated human HepG2 cells assessed as protein degradation at 125 nM incubated for 72 hrs by Western blot analysis relative to control.
Test [14] has the same target. Kind of test: PROTAC activity at PTP1B/CRBN in insulin treated human HepG2 cells assessed as protein degradation at 625 nM incubated for 48 hrs by Western blot analysis relative to control.
Test [15] has the same target. Kind of test: PROTAC activity at PTP1B/CRBN in insulin treated human HepG2 cells assessed as protein degradation at 625 nM incubated for 72 hrs by Western blot analysis relative to control.
The target is the same in test [16]. Kind of test: PROTAC activity at PTP1B/CRBN in insulin treated human HepG2 cells assessed as protein degradation at 1250 nM incubated for 48 hrs by Western blot analysis relative to control.
The target is the same in test [17]. The experiment in a line: PROTAC activity at PTP1B/CRBN in insulin treated human HepG2 cells assessed as protein degradation at 1250 nM incubated for 72 hrs by Western blot analysis relative to control.

The DC50 is the concentration at which degradation of the target reaches its halfway point.

Molecules are shown by their SMILES.

In the case of `O=C1CCC(N2C(=O)c3cccc(NC(=O)CCCCCOCCOCCOCCOCCCCCCNC(=O)c4cccc(NC(=O)CSc5nc6ccccc6[nH]5)c4)c3C2=O)C(=O)N1` (stereo not given), the Activity in [1] was 32%; in test [2], 17%; in test [3], less than 5%; in test [4], less than 5%.
Regarding `C[C@H]1[C@H](C)CC[C@]2(C(=O)NCCCCCCOCCOCCCCCC(=O)Nc3cccc4c3C(=O)N(C3CCC(=O)NC3=O)C4=O)CC[C@]3(C)C(=CC[C@@H]4[C@@]5(C)CC[C@H](O)C(C)(C)[C@@H]5CC[C@]43C)[C@H]12` (stereo not given in full), the Activity in [1] is 18%; in [2], 47%; in test [3], 29%; in test [4] it was 5%.
As to `C[C@H]1[C@H](C)CC[C@]2(C(=O)NCCCCCCOCCOCCOCCCCCC(=O)Nc3cccc4c3C(=O)N(C3CCC(=O)NC3=O)C4=O)CC[C@]3(C)C(=CC[C@@H]4[C@@]5(C)CC[C@H](O)C(C)(C)[C@@H]5CC[C@]43C)[C@H]12` (stereo not given in full), the Activity in [1] was 16%; in [2] it was less than 5%; in test [3] it was 6%; in test [4], 17%.
For `C[C@H]1[C@H](C)CC[C@]2(C(=O)NCCCCCCOCCOCC(=O)Nc3cccc4c3C(=O)N(C3CCC(=O)NC3=O)C4=O)CC[C@]3(C)C(=CC[C@@H]4[C@@]5(C)CC[C@H](O)C(C)(C)[C@@H]5CC[C@]43C)[C@H]12` (stereo not given in full), in that order: 46%, 60%, less than 5% and less than 5%.
Turning to `CC1(C)CC[C@]2(C(=O)NCCCCCCOCCOCCCCCC(=O)Nc3cccc4c3C(=O)N(C3CCC(=O)NC3=O)C4=O)CC[C@]3(C)C(=CC[C@@H]4[C@@]5(C)CC[C@H](O)C(C)(C)[C@@H]5CC[C@]43C)[C@@H]2C1` (stereo not given in full), the Activity in test [1] was 45%; in test [2] it was 33%; in test [3], 36%; in test [4] it was less than 5%.
In the case of `CC1(C)CC[C@]2(C(=O)NCCCCCCOCCOCC(=O)Nc3cccc4c3C(=O)N(C3CCC(=O)NC3=O)C4=O)CC[C@]3(C)C(=CC[C@@H]4[C@@]5(C)CC[C@H](O)C(C)(C)[C@@H]5CC[C@]43C)[C@@H]2C1` (stereo not given in full), the Activity was 57% in [1], 51% in test [2], 26% in test [3] and less than 5% in test [4].
The matching figures for `O=C1CCC(N2C(=O)c3cccc(NC(=O)CCCCCOCCOCCOCCCCCCNC(=O)c4cccc(NC(=O)CSc5nc6ccccc6[nH]5)c4)c3C2=O)C(=O)N1` (stereo not given): 8%, 32%, less than 5% and 30%.
As for `C[C@H]1[C@H](C)CC[C@]2(C(=O)NCCCCCCOCCOCCOCCOCCCCCC(=O)Nc3cccc4c3C(=O)N(C3CCC(=O)NC3=O)C4=O)CC[C@]3(C)C(=CC[C@@H]4[C@@]5(C)CC[C@H](O)C(C)(C)[C@@H]5CC[C@]43C)[C@H]12` (stereo not given in full), the Activity in test [1] was less than 5%; in [2] it was less than 5%; in test [3], 12%; in test [4] it was 42%.
As for `O=C1CCC(N2C(=O)c3cccc(NC(=O)COCCOCCOCCCCCCNC(=O)c4cccc(NC(=O)CSc5nc6ccccc6[nH]5)c4)c3C2=O)C(=O)N1` (stereo not given), the Activity in [1] is 71%; in [2], 38%; in [3], 13%; in test [4], less than 5%.
On to `C[C@H]1[C@H](C)CC[C@]2(C(=O)NCCCCCCOCCOCCOCCOCC(=O)Nc3cccc4c3C(=O)N(C3CCC(=O)NC3=O)C4=O)CC[C@]3(C)C(=CC[C@@H]4[C@@]5(C)CC[C@H](O)C(C)(C)[C@@H]5CC[C@]43C)[C@H]12` (stereo not given in full), for which the Activity in test [1] was less than 5%; in [2], 41%; in test [3], 33%; in test [4], 19%; in [5], “Dose-Dependent Effect”; in [6], “Dose-Dependent Effect”. Further, the Activity in test [7] worked out at 37%; in test [8] it was 30%; in test [9], 36%; in [10], 23%; in test [11], 48%; in [12], 61%. In addition, the Activity in [13] amounted to 32%; in test [14] it was 68%; in [15], 28%; in [16], 35%; in [17] it was 61%. Further, the figures for the DC50 in test [5] and in test [6] were 200 nM and 310 nM, respectively.
`C[C@H]1[C@H](C)CC[C@]2(C(=O)NCCCOCCCCOCCCNc3cccc4c3C(=O)N(C3CCC(=O)NC3=O)C4=O)CC[C@]3(C)C(=CC[C@@H]4[C@@]5(C)CC[C@H](O)C(C)(C)C5CC[C@]43C)[C@H]12` (stereo not given in full): the Activity in [1] worked out at 36%; in [2] it was 65%; in test [3], 54%; in test [4], 46%.
For `CC1(C)CC[C@]2(C(=O)NCCCCCCOCCOCCOCCCCCC(=O)Nc3cccc4c3C(=O)N(C3CCC(=O)NC3=O)C4=O)CC[C@]3(C)C(=CC[C@@H]4[C@@]5(C)CC[C@H](O)C(C)(C)[C@@H]5CC[C@]43C)[C@@H]2C1` (stereo not given in full), in that order: 8%, 16%, less than 5% and 22%.
Regarding `CC1(C)CC[C@]2(C(=O)NCCCCCCNc3cccc4c3C(=O)N(C3CCC(=O)NC3=O)C4=O)CC[C@]3(C)C(=CC[C@@H]4[C@@]5(C)CC[C@H](O)C(C)(C)[C@@H]5CC[C@]43C)[C@@H]2C1` (stereo not given in full), the Activity in test [1] is 38%; in test [2], 44%; in test [3] it was 43%; in test [4], 29%.
As to `CC1(C)CC[C@]2(C(=O)NCCCCCCOCCOCCOCCOCC(=O)Nc3cccc4c3C(=O)N(C3CCC(=O)NC3=O)C4=O)CC[C@]3(C)C(=CC[C@@H]4[C@@]5(C)CC[C@H](O)C(C)(C)[C@@H]5CC[C@]43C)[C@@H]2C1` (stereo not given in full), the Activity in test [1] was found to be 24%; in [2] it was 51%; in test [3] it was 6%; in test [4] it was 32%.
`O=C1CCC(N2C(=O)c3cccc(NC(=O)COCCOCCOCCOCCCCCCNC(=O)c4cccc(NC(=O)CSc5nc6ccccc6[nH]5)c4)c3C2=O)C(=O)N1` (stereo not given): the Activity in [1] was 26%; in test [2] it was 70%; in test [3], 44%; in [4] it was 15%.
With `O=C1CCC(N2C(=O)c3cccc(NC(=O)CCCCCOCCOCCCCCCNC(=O)c4cccc(NC(=O)CSc5nc6ccccc6[nH]5)c4)c3C2=O)C(=O)N1` (stereo not given), the Activity in test [1] is less than 5%; in test [2], 17%; in test [3] it was 13%; in test [4], 10%.
For the compound `O=C1CCC(N2C(=O)c3cccc(NC(=O)COCCOCCCCCCNC(=O)c4cccc(NC(=O)CSc5nc6ccccc6[nH]5)c4)c3C2=O)C(=O)N1` (stereo not given), the Activity in [1] was 24%; in test [2] it was 69%; in [3], 43%; in [4], less than 5%.
For the compound `CC1(C)CC[C@]2(C(=O)NCCCCCCOCCOCCOCC(=O)Nc3cccc4c3C(=O)N(C3CCC(=O)NC3=O)C4=O)CC[C@]3(C)C(=CC[C@@H]4[C@@]5(C)CC[C@H](O)C(C)(C)[C@@H]5CC[C@]43C)[C@@H]2C1` (stereo not given in full), the Activity is 84% in test [1], 56% in [2], 38% in test [3] and less than 5% in [4].
For `O=C1CCC(N2C(=O)c3cccc(NC(=O)CCCCCCCCCCNC(=O)c4cccc(NC(=O)CSc5nc6ccccc6[nH]5)c4)c3C2=O)C(=O)N1` (stereo not given), in that order: 32%, 9%, 19% and less than 5%.
Consider `C[C@H]1[C@H](C)CC[C@]2(C(=O)NCCCCCCNc3cccc4c3C(=O)N(C3CCC(=O)NC3=O)C4=O)CC[C@]3(C)C(=CC[C@@H]4[C@@]5(C)CC[C@H](O)C(C)(C)[C@@H]5CC[C@]43C)[C@H]12` (stereo not given in full), for which the Activity was determined as 11% in [1], 67% in test [2], 23% in [3] and 14% in test [4].
